The text below walks through data of ChEMBL document CHEMBL3774383, “Design and synthesis of [(125)I]Pyricoxib: A novel (125)I-labeled cyclooxygenase-2 (COX-2) inhibitors” (Bioorg Med Chem Lett, 2016).

Test [1] has as its target T1, Prostaglandin G/H synthase 2 (Homo sapiens, UniProt P35354).
T1 sequence (P35354 whole entry): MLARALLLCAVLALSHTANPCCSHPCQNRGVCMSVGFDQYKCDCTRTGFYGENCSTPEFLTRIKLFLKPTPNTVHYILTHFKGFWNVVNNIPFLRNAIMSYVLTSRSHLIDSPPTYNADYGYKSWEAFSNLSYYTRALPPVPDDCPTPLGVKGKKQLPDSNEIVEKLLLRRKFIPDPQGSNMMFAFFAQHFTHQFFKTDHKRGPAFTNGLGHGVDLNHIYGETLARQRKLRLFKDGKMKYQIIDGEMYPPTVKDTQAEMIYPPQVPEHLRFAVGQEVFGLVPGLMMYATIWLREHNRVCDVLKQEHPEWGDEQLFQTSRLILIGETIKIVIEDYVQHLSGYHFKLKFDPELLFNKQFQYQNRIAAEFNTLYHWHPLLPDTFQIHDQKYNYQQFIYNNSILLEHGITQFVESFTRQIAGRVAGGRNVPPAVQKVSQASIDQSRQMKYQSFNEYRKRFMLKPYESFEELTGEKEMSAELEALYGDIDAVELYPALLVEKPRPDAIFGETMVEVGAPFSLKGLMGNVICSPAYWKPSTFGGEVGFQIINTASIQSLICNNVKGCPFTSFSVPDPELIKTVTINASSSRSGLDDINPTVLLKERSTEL
As to the kind of experiment: Inhibition of COX-2 (unknown origin).

For test [2], the target named is T1, Prostaglandin G/H synthase 2.
The target of test [3] is T2, Prostaglandin G/H synthase 1 (Ovis aries, UniProt P05979).
T2 sequence (P05979 whole entry): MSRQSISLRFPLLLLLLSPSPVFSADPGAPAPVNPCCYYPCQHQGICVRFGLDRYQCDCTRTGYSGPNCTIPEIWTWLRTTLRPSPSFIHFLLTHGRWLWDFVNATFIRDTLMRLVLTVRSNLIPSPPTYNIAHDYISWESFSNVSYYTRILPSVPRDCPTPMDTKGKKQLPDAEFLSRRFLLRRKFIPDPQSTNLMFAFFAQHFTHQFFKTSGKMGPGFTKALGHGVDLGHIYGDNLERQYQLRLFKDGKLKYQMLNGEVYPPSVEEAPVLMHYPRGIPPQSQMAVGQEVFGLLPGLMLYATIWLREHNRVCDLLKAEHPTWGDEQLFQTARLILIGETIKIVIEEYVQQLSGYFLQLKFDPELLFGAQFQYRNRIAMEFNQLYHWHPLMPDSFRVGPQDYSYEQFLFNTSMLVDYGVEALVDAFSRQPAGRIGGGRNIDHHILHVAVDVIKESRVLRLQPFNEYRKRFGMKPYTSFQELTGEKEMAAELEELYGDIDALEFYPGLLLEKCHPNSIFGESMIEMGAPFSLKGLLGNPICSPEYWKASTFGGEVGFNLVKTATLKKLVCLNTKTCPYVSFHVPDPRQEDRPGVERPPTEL
Briefly: Inhibition of ovine COX-1 preincubated for 5 mins followed by addition of arachidonic acid as substrate measured after 2 mins by fluorescence analysis.

Test [4] is described as follows: Selectivity index,ratio of IC50 for ovine COX-1 to recombinant human COX-2.
Test [5] concerns the target COX-1/COX-2 (Homo sapiens) (UniProt P35354+P23219). Briefly: Selectivity index, ratio of IC50 for COX-2 (unknown origin) to COX-1 (unknown origin).

Sequence of COX-1/COX-2 (Homo sapiens) (P23219 whole entry, looked up, one chain of several): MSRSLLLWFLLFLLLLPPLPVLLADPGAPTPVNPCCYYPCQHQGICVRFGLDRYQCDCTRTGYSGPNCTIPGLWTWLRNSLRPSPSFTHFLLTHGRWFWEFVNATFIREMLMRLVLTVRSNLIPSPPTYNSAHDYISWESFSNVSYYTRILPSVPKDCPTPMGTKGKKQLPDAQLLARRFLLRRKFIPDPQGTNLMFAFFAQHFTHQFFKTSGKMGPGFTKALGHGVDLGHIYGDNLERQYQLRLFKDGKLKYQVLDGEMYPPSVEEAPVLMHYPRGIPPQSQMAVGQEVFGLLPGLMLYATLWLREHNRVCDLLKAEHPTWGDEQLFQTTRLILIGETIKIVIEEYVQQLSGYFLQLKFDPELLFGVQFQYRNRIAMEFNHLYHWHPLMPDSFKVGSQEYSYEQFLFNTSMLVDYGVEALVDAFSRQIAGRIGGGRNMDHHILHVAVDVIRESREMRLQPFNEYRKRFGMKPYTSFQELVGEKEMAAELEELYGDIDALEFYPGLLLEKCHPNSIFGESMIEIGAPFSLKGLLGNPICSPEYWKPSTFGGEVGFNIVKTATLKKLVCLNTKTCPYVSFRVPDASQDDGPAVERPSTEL

A word on the IC50: it is the concentration that gives 50% inhibition. Read a low IC50 as greater potency. Turning to `Cc1ccc(Nc2c(F)cccc2Cl)c(CC(=O)O)c1` [LUMIRACOXIB], in test [1], the concentration for half-maximal inhibition (IC50) was determined as 0.06 µM.

As to `NS(=O)(=O)c1ccc(-c2cc(C(F)(F)F)nc(NCc3ccc(I)cc3)n2)cc1`, the figures for the IC50 in test [2] and in test [3] were 13 µM and greater than 100 µM, respectively. Further, the Ratio IC50 in test [4] was greater than 7.5.

Consider `CS(=O)(=O)c1ccc(-c2cc(C(F)(F)F)nc(OCc3ccc(I)cc3)n2)cc1`, for which the IC50 is 2.5 µM in test [2] and greater than 100 µM in test [3]. For the same compound, in test [4], the Ratio IC50 was greater than 40.

Consider `CS(=O)(=O)c1ccc(-c2cc(C(F)(F)F)nc(NCc3ccc(I)cc3)n2)cc1`, for which the concentration for half-maximal inhibition (IC50) is 0.85 µM in test [2] and greater than 100 µM in test [3]. For the same compound, in test [4], the Ratio IC50 is greater than 100.

In test [3], `CS(=O)(=O)c1ccc(-c2cc(C(F)(F)F)nc(NCc3ccc(F)cc3)n2)cc1` came in with an IC50 greater than 100 µM.

The compound `CS(=O)(=O)c1ccc(-n2nc(C(F)(F)F)cc2-c2ccc(I)cc2)cc1` displayed an IC50 in test [1] of 5.2 µM.

Turning to `Cc1ccc(Nc2c(F)cccc2I)c(CC(=O)O)c1`, it took 2.5 µM to reach half-maximal inhibition in test [1] (IC50). Also, the Ratio IC50 in test [5] amounted to 10.

Turning to `NS(=O)(=O)c1ccc(-n2nc(C(F)(F)F)cc2-c2ccc(I)cc2)cc1`, in test [1], the half-inhibitory concentration (IC50) is 8.2 µM. Besides, the Ratio IC50 in test [5] was found to be 10.
